Residue numbers refer to the chain shown, from its start. Entries after “also recorded” stand apart in the source; their conditions may differ.
How the values were obtained:
[1] = tested on: DC-SIGN+ Raji cells; assay: Liposome binding assay, flow cytometry; type: cell-based
Method: If not stated otherwise, all media and supplements for cell culture experiments were purchased from Thermo Fisher Scientific. Raji, THP-1 and U937 cell lines (ATCC) were grown in complete growth medium containing RPMI1640 medium, 10% FCS, 100 U mL-1 Penicillin-Streptomycin and GlutaMax at 37°C and 5% CO2. Cells were monitored with a light microscope (IT40 5PH, VWR) and subcultured every 2 -3 days to maintain cell densities ranging from of 0.5 - 3 x 10^6 cells per mL.
CLR-expressing cell lines were generated as described before.4,27 Briefly, DC-SIGN, Langerin, murine Langerin and murine Dectin-1 cDNAs (Sinobiologicals) were cloned into a lentiviral BIC-PGK-Zeo-T2a-mAmetrine:EF1A construct by Gibson assembly (NEB) according to the manufacturer’s protocol. HEK293 cells were transfected with the lentiviral vector together with third-generation packaging vectors and viral particles were then used for transduction of Raji cells. In analogy, DC-SIGN and Langerin-expressing THP-1 and U937 cell lines were generated by lentiviral transduction.
Liposome binding assay – flow cytometry
Liposome binding to CLR-expressing cells was assayed as previously described.27 Briefly, 0.05 x 10^6 cells were plated in transparent conical-bottom 96 well microtiter plates (Nunc) in a volume of 100 µL medium. Plates were centrifuged at 500 x g for 3 minutes, supernatant was aspirated, and cells were resuspended in 100 µL medium, containing 16 µM liposomes. In control experiments, cells were incubated with medium containing 10 mM EDTA or 50 µg mL-1 mannan for 15 min at 4 °C, prior to liposome application. After 1 h incubation at 4 °C in the dark, cells were centrifuged at 500 x g for 3 min and the supernatant was discarded. Cells wer e resuspended in 200 µL ice-cold medium and analyzed by detecting the co-formulated Alexa 647 dye via flow cytometry with a 654 nm laser and a 670/14 nm filter (Attune Nxt, life technologies).
Flow cytometry data was processed using FlowJo (BD Bioscience). Mean fluorescence intensity (MFI) was further analyzed and plotted using GraphPad Prism (GraphPad […]
To monitor allosteric activation of DC-SIGN by glycomimetic 48, the described protocol was adjusted as follows. DC-SIGN+ Raji cells were plated in transparent conical-bottom 96 well microtiter plates (Nunc) in a volume of 100 µL medium. Plates were centrifuged at 500 x g for 3 minutes, supernatant was aspirated, and cell were resuspended in 25 µL medium supplemented with varying concentrations of monovalent carbohydrates or 0.5 mM 48. Homomultivalent liposomes carrying either natural carbohydrates or 48 were added at a final concentration of 16 µM. Liposome binding was subsequently quantified by measuring Alexa 647 fluorescence in flow cytometry experiments. Statistical significance by means of a student’s t-test was assessed based on averaged normalized MFIs from four biological replicates each conducted as technical duplicates. A p-value < 0.05 was set as significance cut-off.

[2] = biological target: T1, DC-SIGN ECD (Homo sapiens, UniProt Q9NNX6); assay: KD determination from 19F NMR CSPs; type: binding; conditions: direct observation of CF3 chemical shift; read-out: KD (19F CSP)
T1 construct: DC-SIGN extracellular domain (ECD); made in house; host or cells: E. coli BL21(DE3), pET30b; gene from GenScript
T1 sequence (Q9NNX6 59-404 limits assumed): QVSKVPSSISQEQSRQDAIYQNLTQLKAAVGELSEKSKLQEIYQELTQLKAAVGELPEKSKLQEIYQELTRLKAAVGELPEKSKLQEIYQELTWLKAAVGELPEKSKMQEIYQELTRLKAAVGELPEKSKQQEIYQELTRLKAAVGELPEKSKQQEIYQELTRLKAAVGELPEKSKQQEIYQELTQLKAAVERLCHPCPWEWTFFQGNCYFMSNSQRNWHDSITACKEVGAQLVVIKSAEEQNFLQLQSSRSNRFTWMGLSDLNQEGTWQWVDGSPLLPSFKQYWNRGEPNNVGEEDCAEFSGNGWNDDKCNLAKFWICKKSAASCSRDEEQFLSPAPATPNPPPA

[3] = biological target: T1, DC-SIGN ECD; assay: Direct 19F R2-filtered NMR binding experiments (CF3 resonance)
Method: KI values were determined as previously described for Langerin and the DC-SIGN CRD.6 Briefly, competitive binding experiments were conducted with 49 at a concentration of 0.1 mM and varying competitor concentrations [I]T. KI and [P]T values were derived from Equation 8 in a two-parameter fit.
R2,obs = R2,f + (R2,b − R2,f)pb […]
θ = cos−1 ( ) ,a = KD + KI + [L]T + [I]T − [P]T
b = ([I]T − [P]T)KD + ([L]T − [P]T)KD + KIKD, c = −KIKD[P]T
KD determination from 19F NMR CSPs
For KD determination from 19F NMR CSPs, samples and measurements were set up as described for 19F R2-filtered NMR but at a single relaxation time T = 0 s. CSP 19F, T were calculated from the chemical shift of the 19F resonance of 48 in the presence of protein δT at increasing ligand concentrations and the chemical shift in absence of protein δf at a concentration of 1 mM via Equation 4.
The KD value was calculated from CSP19F, T values in a two -parameter fit using Equation 10, using a fixed protein concentration [P] T and a CSP19F of 0 ppm as a lower bound. CSP19F,b corresponds to the top asymptote and was kept variable. As in Equation 9, pb represents the fraction of bound protein.

[4] = biological target: T1, DC-SIGN ECD; assay: 19F NMR reporter displacement assay transferred to DC-SIGN ECD; type: binding; conditions: 0.1 mM reporter 49; for 48 estimated, receptor precipitation above 1 mM
[5] = biological target: T2, DC-SIGN CRD M270F (Homo sapiens, UniProt Q9NNX6, M270F); assay: 15N HSQC NMR binding experiments with M270F mutant; conditions: absence of Ca2+
T2 construct: His-tagged DC-SIGN CRD wild-type as well as the M270F mutant; His-tag; made in house; host or cells: E. coli BL21(DE3), pET28a; gene from GenScript
T2 sequence (Q9NNX6 263-378 M270F limits assumed): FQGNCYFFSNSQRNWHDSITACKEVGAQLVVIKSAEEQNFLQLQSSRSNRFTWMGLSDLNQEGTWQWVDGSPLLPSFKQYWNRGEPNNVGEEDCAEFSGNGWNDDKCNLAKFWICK

[6] = biological target: T3, DC-SIGN CRD (Homo sapiens, UniProt Q9NNX6); assay: 15N HSQC NMR titration; type: binding; conditions: 10 mM CaCl2, MES pH 6.0
T3 construct: His-tagged DC-SIGN CRD wild-type as well as the M270F mutant; His-tag; made in house; host or cells: E. coli BL21(DE3), pET28a; gene from GenScript
T3 sequence (Q9NNX6 263-378 limits assumed): T2 sequence (Q9NNX6 263-378 M270F limits assumed) with F8M

## NC[C@H]1O[C@H](Oc2ccc(-c3ccc(C(=O)O)cc3)cc2C(F)(F)F)[C@@H](O)[C@@H](O)[C@@H]1O [compound 48]
[1]; 0.5 mM soluble 48, liposomes with 2.5 mol % Fuc-Lip, p < 0.05, n = 4
  effect of soluble compound on binding of Fuc-Lip liposomes: significantly enhances; also recorded: significantly increased
[1]; 42-Lip up to 1.26%, 48 up to 1.66% total lipid concentration
  binding of homomultivalent liposomes: does not show any binding
[1]; heteromultivalent liposomes with Man-Lip
  molar glycomimetic/Man ratio around which the cooperative binding effect saturates: ~0.5
[2]
  Kd: 370 ± 60 µM
[3]; direct observation of CF3 relaxation rate R2,obs
  Kd: 480 ± 100 µM
[3]; direct-binding NMR KD vs RDA KI
  apparent KD values lower than the determined KI: about 3 fold
[4]
  Ki: 1150 ± 10 µM
[5]
  binding to M270F mutant: abrogation of 48-binding
[6]
  Kd: 460 ± 160 µM

Reference: PMC8603350, “A Remote Secondary Binding Pocket Promotes Heteromultivalent Targeting of DC-SIGN” (Journal of the American Chemical Society, 2021)
